Measured values published in PMC8327648 (Acta Pharmaceutica Sinica. B, 2021).

Legend:
SARS-CoV-2 PsV = conditions: 12 h
[1] = tested on: SARS-CoV-2 S protein-mediated cell–cell fusion; conditions: 2 h
trypsin = conditions: n = 3
proteinase K = proteinase K (Parengyodontium album, UniProt P06873); conditions: n = 3
pseudotyped HCoV-NL63 = conditions: 12 h
authentic SARS-CoV-2 = conditions: 48 h
authentic HCoV-OC43 = conditions: 36 h

Sequence of proteinase K (P06873 106-384): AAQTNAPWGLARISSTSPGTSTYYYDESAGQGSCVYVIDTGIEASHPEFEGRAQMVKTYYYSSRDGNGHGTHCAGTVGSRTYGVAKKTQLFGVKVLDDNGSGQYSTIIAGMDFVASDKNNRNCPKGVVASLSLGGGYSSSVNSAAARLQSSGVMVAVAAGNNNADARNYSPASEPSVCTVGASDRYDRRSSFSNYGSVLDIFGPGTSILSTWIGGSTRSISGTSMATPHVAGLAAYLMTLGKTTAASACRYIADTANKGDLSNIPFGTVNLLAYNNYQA

| SMILES | IC50 (SARS-CoV-2 PsV) [nM] | IC50 [1] [nM] | sensitivity to trypsin (residual inhibitory activity over time) (trypsin) | sensitivity to proteinase K (residual inhibitory activity over time) (proteinase K) | IC50 (pseudotyped HCoV-NL63) [nM] | IC50 (authentic SARS-CoV-2) [nM] | IC50 (authentic HCoV-OC43) [nM] |
| --- | --- | --- | --- | --- | --- | --- | --- |
| CC[C@H](C)[C@H](NC(=O)[C@H](C)NC(=O)[C@H](CCC(=O)O)NC(=O)[C@H](CCC(=O)O)NC(=O)[C@H](CC(C)C)NC(=O)[C@H](CCCCN)NC(=O)[C@H](CCCCN)NC(=O)[C@H](CCSC)NC(=O)[C@H](CCC(=O)O)NC(=O)[C@H](Cc1ccc(O)cc1)NC(=O)[C@H](CCC(=O)O)NC(=O)[C@H](CC(C)C)NC(=O)[C@H](CC(=O)O)NC(=O)[C@H](CC(C)C)NC(=O)[C@H](Cc1ccccc1)NC(=O)[C@@H](NC(=O)[C@@H](NC(=O)[C@H](CC(N)=O)NC(=O)[C@@H](NC(=O)[C@H](CCC(N)=O)NC(=O)[C@H](CC(=O)O)NC(=O)[C@H](CC(C)C)NC(=O)[C@@H](N)CO)[C@@H](C)CC)C(C)C)[C@@H](C)O)C(=O)N[C@@H](CCCCN)C(=O)N[C@@H](CCCCN)C(=O)N[C@@H](CC(C)C)C(=O)N[C@@H](CCC(=O)O)C(=O)N[C@@H](CCC(=O)O)C(=O)N[C@@H](CO)C(=O)N[C@@H](Cc1ccc(O)cc1)C(=O)N[C@H](C(=O)N[C@@H](CC(=O)O)C(=O)N[C@@H](CC(C)C)C(=O)N[C@@H](CCCCN)C(=O)N[C@@H](CCC(=O)O)C(=O)N[C@@H](CC(C)C)C(=O)NCC(=O)N[C@@H](CO)C(=O)NCC(=O)N[C@@H](CO)C(=O)NCC(=O)NCCOCCOCCOCCOCCC(=O)N[C@@H](CSCC(=O)O[C@H]1CC[C@@]2(C)C(=CC[C@H]3[C@@H]4CC[C@H]([C@H](C)CCCC(C)C)[C@@]4(C)CC[C@@H]32)C1)C(N)=O)[C@@H](C)CC [EK1C4] | 7 to 27 | 3 | gradually decreased more significantly | gradually decreased more significantly | – | – | – |
| CC[C@H](C)[C@H](NC(=O)[C@H](C)NC(=O)[C@H](CCC(=O)O)NC(=O)[C@H](CCC(=O)O)NC(=O)[C@H](CC(C)C)NC(=O)[C@H](CCCCN)NC(=O)[C@H](CCCCN)NC(=O)[C@H](CCSC)NC(=O)[C@H](CCC(=O)O)NC(=O)[C@H](Cc1ccc(O)cc1)NC(=O)[C@H](CCC(=O)O)NC(=O)[C@H](CC(C)C)NC(=O)[C@H](CC(=O)O)NC(=O)[C@H](CC(C)C)NC(=O)[C@H](Cc1ccccc1)NC(=O)[C@@H](NC(=O)[C@@H](NC(=O)[C@H](CC(N)=O)NC(=O)[C@@H](NC(=O)[C@H](CCC(N)=O)NC(=O)[C@H](CC(=O)O)NC(=O)[C@H](CC(C)C)NC(=O)[C@@H](N)CO)[C@@H](C)CC)C(C)C)[C@@H](C)O)C(=O)N[C@@H](CCCCN)C(=O)N[C@@H](CCCCN)C(=O)N[C@@H](CC(C)C)C(=O)N[C@@H](CCC(=O)O)C(=O)N[C@@H](CCC(=O)O)C(=O)N[C@@H](CO)C(=O)N[C@@H](Cc1ccc(O)cc1)C(=O)N[C@H](C(=O)N[C@@H](CC(=O)O)C(=O)N[C@@H](CC(C)C)C(=O)N[C@@H](CCCCN)C(=O)N[C@@H](CCC(=O)O)C(=O)N[C@@H](CC(C)C)C(N)=O)[C@@H](C)CC [EK1] | – | 320 | – | – | 1340 | 71 | 2430 |
